Key:
human CB1 [1] = biological target: T1, human CB1 (Homo sapiens (Human), UniProt P21554); test: In vitro cannabinoid receptor activity assay (calcium mobilization, FLIPR) in CHO cells expressing human CB1 and Gαq16; format: cell-based; details: for EC50: CHO cells, hCB1, calcium fluorescence, read-out: hCB1 Ca EC50; for hCB1 Ca Span: percentage of the maximum CP55940 signal
Procedure: (§1) In vitro cannabinoid receptor activity assay. Chinese Hamster Ovary (CHO) cells stably expressing either human CB1 or CB2 cDNA and the promiscuous G-protein Gαq16 were transferred to each well of a black Costar 96-well optical bottom plate (Corning Corporation). Each plate was incubated at 37° C. for 24 hr to confluence. The culture media was removed from the plates and cells were subsequently loaded with a fluorescent calcium probe (Calcium 5 dye, Molecular Devices) at a final loading concentration of 2 μM in a HBSS-based buffer containing 20 mM HEPES, 1% BSA and 10 μM Probenecid (Sigma) in a total volume of 225 μl. Cells were incubated at 37° C. for 1 hr and then stimulated with various concentrations of a test agent using a FLIPR Tetra plate-reader, which automatically added the agonist at 10× concentration to each well after reading baseline values for ˜17 sec. Agonist-mediated change in fluorescence (488 nm excitation, 525 nm emission) was monitored in each well at 1 sec intervals for 60 sec and reported for each well. Data were analyzed using Prism software (GraphPad). Non-linear regression analysis was performed to fit data and obtain maximum response (Emax), effective concentration for 50% response (EC50), correlation coefficient (r2) and other parameters. All experiments were performed 3-6 times to ensure reproducibility.
(§2) Reference is made to the following reference, hereby incorporated by reference with regard to such assay, Seltzman, et al., Peripherally Selective Cannabinoid 1 Receptor (CB1R) Agonists for the Treatment of Neuropathic Pain, J Med Chem. 2016 Aug. 25; 59 (16):7525-43. doi: 10.1021/acs.jmedchem.6b00516. Epub 2016 Aug. 10.

human CB2 [2] = biological target: T2, human CB2 (Homo sapiens (Human), UniProt P34972); test: In vitro cannabinoid receptor activity assay (calcium mobilization, FLIPR) in CHO cells expressing human CB2 and Gαq16; format: cell-based; details: for EC50: CHO cells, hCB2, calcium fluorescence, read-out: hCB2 Ca EC50; for hCB2 Ca Span: percentage of the maximum CP55940 signal
Procedure: as §1, §2

human CB1 [3] = biological target: T1, human CB1; test: In vitro binding affinity, [3H]CP-55,940 radioligand displacement, HEK cell membranes overexpressing human CB1; details: [3H]CP-55,940 displacement, read-out: hCB1 Ki
Procedure: (§3) In vitro binding affinity determination using radioligand displacement. Plasma membranes were isolated from HEK cells overexpressing either human CB1 or CB2. Binding was initiated with the addition of 40 μg of cell membrane proteins to assay tubes containing [3H]CP-55,940 (ca. 130 Ci/mmol), a test compound (for displacement studies), and a sufficient quantity of buffer (50 mM Tris-HCl, 1 mM EDTA, 3 mM MgCl2, 5 mg/mL BSA, pH 7.4) to bring the total incubation volume to 0.5 mL. Nonspecific binding was determined by the inclusion of 10 μM unlabeled CP-55,940. Following incubation at 30° C. for 1 h, binding was terminated by vacuum filtration through GF/C glass fiber filter plates. The filter plates were washed extensively and air-dried and sealed on the bottom. Liquid scintillate was added to the wells and the top sealed. After incubating the plates in cocktail for at least 2 h, the radioactivity present was determined by liquid scintillation spectrometry. Assays were done in duplicate, and results represent combined data from 3-6 experiments. Saturation and displacement data were analyzed by unweighted nonlinear regression of receptor binding data. For displacement studies, curve-fitting and IC50 calculation were done with GraphPad Prism (GraphPad Software, Inc., San Diego, CA).
(§4) Reference is made to the following reference, hereby incorporated by reference with regard to such assay, Zhang et al., Synthesis and biological evaluation of bivalent ligands for the cannabinoid 1 receptor, J Med Chem. 2010 Oct. 14; 53 (19):7048-60. doi: 10.1021/jm1006676.

human CB2 [4] = biological target: T2, human CB2; test: In vitro binding affinity, [3H]CP-55,940 radioligand displacement, HEK cell membranes overexpressing human CB2; details: [3H]CP-55,940 displacement, read-out: hCB2 Ki
Procedure: as §3, §4

Structure (SMILES): CC(C)(NC(=O)c1nn(CC2CCOCC2)c2ccccc12)c1cccc(NC(N)=O)c1 [Example 23, N-{2-[3-(Carbamoylamino)phenyl]propan-2-yl}-1-(oxan-4-ylmethyl)-1H-indazole-3-carboxamide]
- EC50 (human CB1 [1]): 1200 nM
- hCB1 Ca Span (human CB1 [1]): 91%
- EC50 (human CB2 [2]): 94 nM
- hCB2 Ca Span (human CB2 [2]): 61%

Structure (SMILES): CC(C)(NC(=O)c1nn(Cc2ccc(F)cc2)c2ccccc12)C1CCCN(CC(N)=O)C1 (stereo not drawn) [Example 30, N-{2-[1-(Carbamoylmethyl)piperidin-3-yl]propan-2-yl}-1-[(4-fluorophenyl)methyl]-1H-indazole-3-carboxamide]
- EC50 (human CB1 [1]): 330 nM
- hCB1 Ca Span (human CB1 [1]): 40%
- EC50 (human CB2 [2]): 63 nM
- hCB2 Ca Span (human CB2 [2]): 12%
- Ki (human CB1 [3]): 48 nM
- Ki (human CB2 [4]): 21 nM

Structure (SMILES): CNC(=O)Nc1cccc(C(C)(C)NC(=O)c2nn(CC3CCC(F)(F)CC3)c3ccccc23)c1 [Example 26, 1-[(4,4-Difluorocyclohexyl)methyl]-N-(2-{3-[(methylcarbamoyl)amino]phenyl}propan-2-yl)-1H-indazole-3-carboxamide]
- EC50 (human CB1 [1]): 16 nM
- hCB1 Ca Span (human CB1 [1]): 110%
- EC50 (human CB2 [2]): 34 nM
- hCB2 Ca Span (human CB2 [2]): 61%

Structure (SMILES): CCCCCn1nc(C(=O)NC(C)(C)c2cccc(NC(=O)NC)c2)c2ccccc21 [Example 27, N-(2-{3-[(Methylcarbamoyl)amino]phenyl}propan-2-yl)-1-pentyl-1H-indazole-3-carboxamide]
- EC50 (human CB1 [1]): 100 nM
- hCB1 Ca Span (human CB1 [1]): 100%
- EC50 (human CB2 [2]): 170 nM
- hCB2 Ca Span (human CB2 [2]): 55%

Structure (SMILES): CC(C)(NC(=O)c1nn(Cc2ccc(F)cc2)c2ccccc12)C1CCCN(C(N)=O)C1 (stereo not drawn) [Example 29, N-[2-(1-Carbamoylpiperidin-3-yl)propan-2-yl]-1-[(4-fluorophenyl)methyl]-1H-indazole-3-carboxamide]
- EC50 (human CB1 [1]): 140 nM
- hCB1 Ca Span (human CB1 [1]): 75%
- EC50 (human CB2 [2]): 46 nM
- hCB2 Ca Span (human CB2 [2]): 36%

Structure (SMILES): CC(C)(NC(=O)c1cn(Cc2ccc(F)cc2)c2ccccc12)c1cccc(C(N)=O)c1 [Example 33, N-[2-(3-Carbamoylphenyl)propan-2-yl]-1-[(4-fluorophenyl)methyl]-1H-indole-3-carboxamide]
- EC50 (human CB1 [1]): 870 nM
- hCB1 Ca Span (human CB1 [1]): 25%
- EC50 (human CB2 [2]): 160 nM
- hCB2 Ca Span (human CB2 [2]): 30%

Structure (SMILES): CNC(=O)Nc1cccc(C(C)(C)NC(=O)c2nn(CCCCCF)c3ccccc23)c1 [Example 28, 1-(5-Fluoropentyl)-N-(2-{3-[(methylcarbamoyl)amino]phenyl}propan-2-yl)-1H-indazole-3-carboxamide]
- EC50 (human CB1 [1]): 30 nM
- hCB1 Ca Span (human CB1 [1]): 100%
- EC50 (human CB2 [2]): 65 nM
- hCB2 Ca Span (human CB2 [2]): 61%

Structure (SMILES): CC(C)(NC(=O)c1nn(Cc2ccc(F)cc2)c2ccccc12)C1CCN(CC(N)=O)CC1 [Example 32, N-{2-[1-(Carbamoylmethyl)piperidin-4-yl]propan-2-yl}-1-[(4-fluorophenyl)methyl]-1H-indazole-3-carboxamide]
- EC50 (human CB1 [1]): 40 nM
- hCB1 Ca Span (human CB1 [1]): 110%
- EC50 (human CB2 [2]): 29 nM
- hCB2 Ca Span (human CB2 [2]): 62%

Structure (SMILES): CC(C)(NC(=O)c1nn(CCCCC(F)(F)F)c2ccccc12)c1cccc(C(N)=O)c1 [Example 19, N-[2-(3-Carbamoylphenyl)propan-2-yl]-1-(5,5,5-trifluoropentyl)-1H-indazole-3-carboxamide]
- EC50 (human CB1 [1]): 150 nM
- hCB1 Ca Span (human CB1 [1]): 64%
- EC50 (human CB2 [2]): 480 nM
- hCB2 Ca Span (human CB2 [2]): 39%

Structure (SMILES): CC(C)(NC(=O)c1nn(Cc2ccc(F)cc2)c2ccccc12)c1cccc(C(N)=O)c1 [Example 12, N-[2-(3-Carbamoylphenyl)propan-2-yl]-1-[(4-fluorophenyl)methyl]-1H-indazole-3-carboxamide]
- EC50 (human CB1 [1]): 21 nM
- hCB1 Ca Span (human CB1 [1]): 24%
- EC50 (human CB2 [2]): 27 nM
- hCB2 Ca Span (human CB2 [2]): 41%
- Ki (human CB1 [3]): 4 nM
- Ki (human CB2 [4]): 10 nM

Structure (SMILES): CC(c1ccc(F)cc1)n1nc(C(=O)NC(C)(C)c2cccc(C(N)=O)c2)c2ccccc21 (stereo not drawn) [Example 14, N-[2-(3-Carbamoylphenyl)propan-2-yl]-1-[1-(4-fluorophenyl)ethyl]-1H-indazole-3-carboxamide]
- EC50 (human CB1 [1]): 240 nM
- hCB1 Ca Span (human CB1 [1]): 76%
- EC50 (human CB2 [2]): > 10000 nM

Structure (SMILES): C[C@@H](NC(=O)c1nn(Cc2ccc(F)cc2)c2ccccc12)c1cccc(C(N)=O)c1 [Example 10, N-[(1R)-1-(3-Carbamoylphenyl)ethyl]-1-[(4-fluorophenyl)methyl]-1H-indazole-3-carboxamide]
- EC50 (human CB1 [1]): 490 nM
- hCB1 Ca Span (human CB1 [1]): 19%
- EC50 (human CB2 [2]): 660 nM
- hCB2 Ca Span (human CB2 [2]): 25%

Structure (SMILES): CC(C)(NC(=O)c1nn(CC2CCC(F)(F)CC2)c2ccccc12)c1cccc(C(N)=O)c1 [Example 15, N-[2-(3-Carbamoylphenyl)propan-2-yl]-1-[(4,4-difluorocyclohexyl)methyl]-1H-indazole-3-carboxamide]
- EC50 (human CB1 [1]): 15 nM
- hCB1 Ca Span (human CB1 [1]): 86%
- EC50 (human CB2 [2]): 51 nM
- hCB2 Ca Span (human CB2 [2]): 38%

Structure (SMILES): CC(C)(NC(=O)c1nn(CC2CCC(F)(F)CC2)c2ccccc12)c1cccc(NC(N)=O)c1 [Example 22, N-{2-[3-(Carbamoylamino)phenyl]propan-2-yl}-1-[(4,4-difluorocyclohexyl)methyl]-1H-indazole-3-carboxamide]
- EC50 (human CB1 [1]): 160 nM
- hCB1 Ca Span (human CB1 [1]): 89%
- EC50 (human CB2 [2]): 58 nM
- hCB2 Ca Span (human CB2 [2]): 51%

Structure (SMILES): CCCCCn1nc(C(=O)NC(C)(C)c2cccc(NC(N)=O)c2)c2ccccc21 [Example 24, N-{2-[3-(Carbamoylamino)phenyl]propan-2-yl}-1-pentyl-1H-indazole-3-carboxamide]
- EC50 (human CB1 [1]): 1300 nM
- hCB1 Ca Span (human CB1 [1]): 52%
- EC50 (human CB2 [2]): 320 nM
- hCB2 Ca Span (human CB2 [2]): 47%

Structure (SMILES): CC(C)(NC(=O)c1nn(CCCCCF)c2ccccc12)c1cccc(C(N)=O)c1 [Example 18, N-[2-(3-Carbamoylphenyl)propan-2-yl]-1-(5-fluoropentyl)-1H-indazole-3-carboxamide]
- EC50 (human CB1 [1]): 78 nM
- hCB1 Ca Span (human CB1 [1]): 27%
- EC50 (human CB2 [2]): 84 nM
- hCB2 Ca Span (human CB2 [2]): 35%

Structure (SMILES): CC(C)(NC(=O)c1nn(Cc2ccc(F)cc2)c2ccccc12)c1cccc(NC(N)=O)c1 [Example 21, N-{2-[3-(Carbamoylamino)phenyl]propan-2-yl}-1-[(4-fluorophenyl)methyl]-1H-indazole-3-carboxamide]
- EC50 (human CB1 [1]): 1600 nM
- hCB1 Ca Span (human CB1 [1]): 34%
- EC50 (human CB2 [2]): 160 nM
- hCB2 Ca Span (human CB2 [2]): 34%

Structure (SMILES): CCCCCn1nc(C(=O)NC(C)(C)c2cccc(C(N)=O)c2)c2ccccc21 [Example 17, N-[2-(3-Carbamoylphenyl)propan-2-yl]-1-pentyl-1H-indazole-3-carboxamide]
- EC50 (human CB1 [1]): 220 nM
- hCB1 Ca Span (human CB1 [1]): 24%
- EC50 (human CB2 [2]): 180 nM
- hCB2 Ca Span (human CB2 [2]): 43%

Structure (SMILES): CC(C)(NC(=O)c1nn(CC2CCOCC2)c2ccccc12)c1cccc(C(N)=O)c1 [Example 16, N-[2-(3-Carbamoylphenyl)propan-2-yl]-1-(oxan-4-ylmethyl)-1H-indazole-3-carboxamide]
- EC50 (human CB1 [1]): 140 nM
- hCB1 Ca Span (human CB1 [1]): 92%
- EC50 (human CB2 [2]): 63 nM
- hCB2 Ca Span (human CB2 [2]): 57%

Structure (SMILES): CC(C)(NC(=O)c1nn(CCCCCF)c2ccccc12)c1cccc(NC(N)=O)c1 [Example 25, N-{2-[3-(carbamoylamino)phenyl]propan-2-yl}-1-(5-fluoropentyl)-1H-indazole-3-carboxamide]
- EC50 (human CB1 [1]): 570 nM
- hCB1 Ca Span (human CB1 [1]): 65%
- EC50 (human CB2 [2]): 170 nM
- hCB2 Ca Span (human CB2 [2]): 51%

Structure (SMILES): CC(C)(NC(=O)c1nn(Cc2ccc(F)cc2)c2ccccc12)C1CCN(C(N)=O)CC1 [Example 31, N-[2-(1-Carbamoylpiperidin-4-yl)propan-2-yl]-1-[(4-fluorophenyl)methyl]-1H-indazole-3-carboxamide]
- EC50 (human CB1 [1]): 1000 nM
- hCB1 Ca Span (human CB1 [1]): 64%
- EC50 (human CB2 [2]): 140 nM
- hCB2 Ca Span (human CB2 [2]): 57%

From US20230339863A1, “INDAZOLE DERIVATIVES AS CANNABINOID RECEPTOR PARTIAL AGONISTS” (RESEARCH TRIANGLE INSTITUTE, priority 2020, published 2023)
